Measured values from patent US5017703A, “Indolylpiperidine compounds, processes for the preparation thereof and pharmaceutical composition comprising the same” (Fujisawa Pharmaceutical Company, Ltd., priority 1988, dated 1991).
In brackets after ≈: the same amount, converted by molar mass.

These compounds were tested on anaphylactic asthma in guinea pigs (assay: Antagonistic action on anaphylactic asthma in guinea pigs). Details: Cavia porcellus; oral, 30 min before 5% egg-white albumin aerosol; passively sensitized guinea pigs, 5 per group; survival for not less than 2 hours; read-out: Prophylactic Effect ED50.
Type: in vivo, Male Hartley-strain guinea pigs
Description: Antagonistic action on anaphylactic asthma in guinea pigs.
Male Hartley-strain guinea pigs weighing 305-400g were used. These animals were sensitized by intravenous injection of 0.5 ml/animal of rabbit antiserum to egg-white albumin (PCA antibody titer 4,000). After 24 hours, the animals were housed individually in 5.3-liter plastic chambers. Using a commercial sprayer, a 5% egg-white albumin solution was sprayed in the form of an aerosol into each chamber at a rate of 0.16 ml/min for 2 minutes. Thirty minutes prior to the spraying of the egg-white albumin solution, the test compound was administered orally in varied concentrations. Each dosed group consisted of 5 animals. The prophylactic effect to anaphylaxis was expressed in terms of the ED50 value determined on the basis of the number of guinea pigs which had survived for not less than 2 hours after antigen spraying for each administration concentration of the test compound.

SMILES	ED50
COc1cc(/C=C/C=C/C(=O)NCCCCN2CCC(c3c[nH]c4ccccc34)CC2)ccc1O [Compound A, 1-[4-{5-(4-Hydroxy-3-methoxyphenyl)-(2E, 4E)-2,4-pentadienoylamino}butyl]-4-(3-indolyl)-piperidine]	0.5 mg/kg
COc1cc(/C=C/C=C/C(=O)NCCN2CCC(c3c[nH]c4ccccc34)CC2)cc(OC)c1O [Compound C, 1-[2-{5-(4-Hydroxy-3,5-dimethoxyphenyl)-(2E, 4E)-2,4-pentadienoylamino}ethyl]-4-(3-indolyl)piperidine]	0.5 mg/kg

These compounds were tested on SRS-A synthesis or release from peritoneal exudate cells (assay: Anti-SRS-A activity (SRS-A synthesis or release from peritoneal exudate cells)). Details: rat peritoneal exudate cells, Ca++-ionophore A23187 1 μg/ml, indomethacin 10 μg/ml; SRS-A determined by contractility of isolated guinea pig ileum; read-out: Inhibitory Concentration IC50.
Type: cell-based, SD rats
Description: Peritoneal exudate cells were collected from glycogen-injected SD rats and adjusted to 1×10^7 cells/ml with Tyrode's solution. One milliliter of the cell suspension was incubated with indomethacin (10 μg/ml) and each varied concentration of the test compound for 10 minutes and, then, further incubated with Ca^++ -ionophore (A23187, 1 μg/ml) for 10 minutes. The supernatant was collected by centrifugation and the SRS-A (slow-reacting substance of anaphylaxis) activity was determined in terms of contractility of the isolated guinea pig ileum in the presence of mepyramine, atropine and methysergide.
The results were expressed in terms of the 50% inhibitory concentration to SRS-A synthesis or release from peritoneal exudate cells.

SMILES	IC50
COc1cc(/C=C/C=C/C(=O)NCCN2CCC(c3c[nH]c4ccccc34)CC2)cc(OC)c1OC(C)=O [Compound E, 1-[2-{5-(4-Acetoxy-3,5-dimethoxyphenyl)-(2E, 4E)-2,4-pentadienoylamino}ethyl]-4-(3-indolyl)piperidine]	0.23 mg/L (≈ 0.444 µM)
COc1cc(/C=C/C=C/C(=O)NCCN2CCC(c3c[nH]c4ccccc34)CC2)ccc1OC(C)=O [Compound D, 1-[2-{5-(4-Acetoxy-3-methoxyphenyl)-(2E, 4E)-2,4-pentadienoylamino}ethy]-4-(3-indolyl)piperidine]	0.6 mg/L (≈ 1.23 µM)

Continued, values first:

IC50	SMILES
0.65 mg/L (≈ 1.34 µM)	O=C(/C=C/C=C/c1cc(Cl)c(O)c(Cl)c1)NCCN1CCC(c2c[nH]c3ccccc23)CC1 [Compound F, 1-[2-{5-(3,5-Dichloro-4-hydroxyphenyl)-(2E, 4E)-2,4-pentadienoylamino}ethyl]-4-(3-indolyl)piperidine]
0.68 mg/L (≈ 1.43 µM)	COc1cc(/C=C/C=C/C(=O)NCCN2CCC(c3c[nH]c4ccccc34)CC2)cc(OC)c1O [Compound C, 1-[2-{5-(4-Hydroxy-3,5-dimethoxyphenyl)-(2E, 4E)-2,4-pentadienoylamino}ethyl]-4-(3-indolyl)piperidine]
0.91 mg/L (≈ 2.04 µM)	COc1cc(/C=C/C=C/C(=O)NCCN2CCC(c3c[nH]c4ccccc34)CC2)ccc1O [Compound B, 1-[2-{5-(4-Hydroxy-3-methoxyphenyl)-(2E, 4E)-2,4-pentadienoylamino}ethyl]-4-(3-indolyl)piperidine]
